Laboratory results taken from PMC6650409, “Modeling the binding of diverse ligands within the Ah receptor ligand binding domain” (Scientific Reports, 2019).
Residue numbers refer to the chain shown, from its start.

How the values were obtained:
M334A mutant AhR = target: T1, M334A mutant AhR (Mus musculus, UniProt P30561, M334A); assay: [3H]TCDD competitive ligand binding, M334A mutant AhR; conditions: for change of relative binding affinity versus wild-type AhR: M334A substitution, in words; for IC50: Table S6, AhR mutant M334A
T1 construct: made in house; host or cells: in vitro, Promega TNT Quick rabbit reticulocyte lysate
T1 sequence (P30561 10-848 M334A): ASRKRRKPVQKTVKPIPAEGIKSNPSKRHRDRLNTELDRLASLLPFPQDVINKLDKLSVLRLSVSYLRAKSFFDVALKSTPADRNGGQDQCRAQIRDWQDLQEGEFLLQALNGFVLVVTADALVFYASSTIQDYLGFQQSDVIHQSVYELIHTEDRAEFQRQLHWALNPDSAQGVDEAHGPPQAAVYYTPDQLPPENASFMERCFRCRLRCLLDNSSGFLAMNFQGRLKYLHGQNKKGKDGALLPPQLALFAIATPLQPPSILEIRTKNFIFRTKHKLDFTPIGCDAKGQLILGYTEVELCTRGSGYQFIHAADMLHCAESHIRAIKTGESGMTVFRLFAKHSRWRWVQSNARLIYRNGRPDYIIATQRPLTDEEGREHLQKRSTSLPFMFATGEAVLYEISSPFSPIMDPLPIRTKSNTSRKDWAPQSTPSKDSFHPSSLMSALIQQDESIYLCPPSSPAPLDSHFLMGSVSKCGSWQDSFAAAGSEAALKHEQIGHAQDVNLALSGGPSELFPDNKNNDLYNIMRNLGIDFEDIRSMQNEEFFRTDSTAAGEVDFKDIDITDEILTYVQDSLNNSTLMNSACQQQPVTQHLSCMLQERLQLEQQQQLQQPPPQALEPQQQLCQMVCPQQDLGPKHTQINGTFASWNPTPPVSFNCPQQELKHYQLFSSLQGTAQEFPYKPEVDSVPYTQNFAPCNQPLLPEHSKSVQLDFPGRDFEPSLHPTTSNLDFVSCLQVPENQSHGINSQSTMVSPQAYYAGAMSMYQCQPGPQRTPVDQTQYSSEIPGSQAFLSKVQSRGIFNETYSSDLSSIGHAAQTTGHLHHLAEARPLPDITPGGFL
Experimental: The mouse AhR (mAhR) and ARNT (mARNT) expression plasmids, mβAhR/pcDNA3 and mβArnt/pcDNA3, have been previously described. Point mutations of mβAhR/pcDNA3 were carried out using the QuikChange Lightning Mutagenesis Kit (Agilent Technologies) and all constructs were verified by sequencing.
[^3H]TCDD specific binding to wild-type or mutant mAhRs synthesized in vitro using the Promega TNT Quick coupled transcription/translation rabbit reticulocyte lysate kit (Madison, WI) was carried out as previously described. [^3H]TCDD specific binding was determined by subtracting the amount of [^3H]TCDD bound to unprogrammed lysate (nonspecific binding) from the total amount of [^3H]TCDD binding to lysate containing in vitro expressed AhR. The amount of [^3H]TCDD specific binding remaining in the presence of the indicated competitor chemical was expressed as a percent of the total [^3H]TCDD specific binding. The relative binding affinity (IC50) of each chemical was determined from concentration-dependent competitive inhibition curves obtained using [^3H]TCDD and increasing concentrations of each test chemical and the mean IC50 value was determined using three-parameter non-linear regression.

L302A mutant AhR = target: T2, L302A mutant AhR (Mus musculus, UniProt P30561, L302A); assay: AhR DNA binding (gel retardation) assay, L302A mutant AhR; format: biochemical; conditions: L302A mutation; single maximal ligand concentration; in words
T2 construct: made in house; host or cells: in vitro transcription/translation (rabbit reticulocyte lysate)
T2 sequence (P30561 10-848 L302A): T1 sequence (P30561 10-848 M334A) with L293A, A325M
Experimental: (§1) Wild-type and mutant mAhRs and mARNT were synthesized in vitro in the presence of unlabeled L-methionine, the resulting mAhRs and mARNT translation mixtures and MEDGK (25 mM MOPS (3-(N-morpholino)propanesulfonic acid; pH 7.5), 1 mM EDTA, 1 mM dithiothreitol, 10% (v/v) glycerol, 150 mM KCl) were mixed in a 1:1:8 (v/v/v) ratio and incubated with DMSO (1% final concentration) or the indicated concentration of TCDD or test chemical for 2 hours at room temperature. An aliquot of each incubation was mixed with [^32P]-labeled double-stranded oligonucleotide containing the mouse AhR DNA binding site DRE3 (a dioxin responsive element from the upstream region of the murine Cyp1a1 gene[71]) and protein-DNA complexes resolved by gel retardation analysis as previously described in detail. Gels were visualized using a FLA9000 Fujifilm Imager and protein-DNA complexes quantitated with Fujifilm MultiGauge software. For potency measurements, reactions were incubated with increasing concentrations of the test chemical and the chemical concentration producing half maximal AhR:ARNT:DRE complex formation (EC50) determined.

L309A mutant AhR = target: T3, L309A mutant AhR (Mus musculus, UniProt P30561, L309A); assay: AhR DNA binding (gel retardation) assay, L309A mutant AhR; format: biochemical; conditions: L309A substitution; relative to wt mAhR activated by TCDD; single maximal ligand concentration
T3 construct: made in house; host or cells: in vitro transcription/translation (rabbit reticulocyte lysate)
T3 sequence (P30561 10-848 L309A): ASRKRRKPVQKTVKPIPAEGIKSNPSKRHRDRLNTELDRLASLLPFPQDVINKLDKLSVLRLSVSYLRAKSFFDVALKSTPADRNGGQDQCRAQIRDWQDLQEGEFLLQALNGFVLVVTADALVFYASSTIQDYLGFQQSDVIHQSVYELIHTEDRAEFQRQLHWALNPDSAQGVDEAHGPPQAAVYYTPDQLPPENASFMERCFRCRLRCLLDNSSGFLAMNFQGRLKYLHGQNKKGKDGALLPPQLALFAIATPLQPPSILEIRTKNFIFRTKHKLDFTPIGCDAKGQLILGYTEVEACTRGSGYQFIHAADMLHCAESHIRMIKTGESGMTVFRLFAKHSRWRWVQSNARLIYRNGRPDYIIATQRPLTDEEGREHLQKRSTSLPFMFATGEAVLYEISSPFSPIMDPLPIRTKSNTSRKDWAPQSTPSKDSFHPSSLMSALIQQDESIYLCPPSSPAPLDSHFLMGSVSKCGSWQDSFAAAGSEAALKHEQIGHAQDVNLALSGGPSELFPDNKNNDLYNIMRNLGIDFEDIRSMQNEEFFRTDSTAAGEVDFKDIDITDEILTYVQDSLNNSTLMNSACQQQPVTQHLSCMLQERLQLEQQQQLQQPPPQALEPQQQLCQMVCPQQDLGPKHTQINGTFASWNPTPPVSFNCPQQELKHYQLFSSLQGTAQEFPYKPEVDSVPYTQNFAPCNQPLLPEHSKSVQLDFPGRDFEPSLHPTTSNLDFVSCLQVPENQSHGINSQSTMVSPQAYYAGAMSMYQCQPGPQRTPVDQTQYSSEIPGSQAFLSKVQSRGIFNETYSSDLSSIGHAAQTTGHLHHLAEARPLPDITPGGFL
T3 sequence (P53762 whole entry partner): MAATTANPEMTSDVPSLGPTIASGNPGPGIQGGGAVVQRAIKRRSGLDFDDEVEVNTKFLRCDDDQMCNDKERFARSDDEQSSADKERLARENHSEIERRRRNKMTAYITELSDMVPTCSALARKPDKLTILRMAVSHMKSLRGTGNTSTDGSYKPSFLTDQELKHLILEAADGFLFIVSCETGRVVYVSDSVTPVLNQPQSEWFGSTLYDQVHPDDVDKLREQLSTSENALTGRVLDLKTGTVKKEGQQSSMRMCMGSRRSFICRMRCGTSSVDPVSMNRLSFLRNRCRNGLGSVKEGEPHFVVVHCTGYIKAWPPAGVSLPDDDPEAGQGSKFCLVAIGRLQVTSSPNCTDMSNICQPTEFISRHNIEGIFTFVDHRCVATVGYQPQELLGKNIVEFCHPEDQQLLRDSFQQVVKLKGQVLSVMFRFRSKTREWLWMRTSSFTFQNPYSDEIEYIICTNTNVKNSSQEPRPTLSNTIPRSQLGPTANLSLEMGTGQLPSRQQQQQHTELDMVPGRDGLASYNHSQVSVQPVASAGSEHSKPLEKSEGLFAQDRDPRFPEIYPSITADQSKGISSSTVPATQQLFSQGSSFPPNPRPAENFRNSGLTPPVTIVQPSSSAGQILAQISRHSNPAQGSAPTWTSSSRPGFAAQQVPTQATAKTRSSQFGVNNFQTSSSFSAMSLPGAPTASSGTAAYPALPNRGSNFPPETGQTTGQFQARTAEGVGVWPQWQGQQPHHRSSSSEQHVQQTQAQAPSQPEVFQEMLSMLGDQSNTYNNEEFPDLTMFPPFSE
Experimental: as §1

Compound	change of relative binding affinity versus wild-type AhR (M334A mutant AhR)	IC50 (M334A mutant AhR) [nM]	ligand-stimulated AhR DNA binding (L302A mutant AhR)	ligand-induced AhR DNA binding (L309A mutant AhR)
Cc1ccc2cc3c(ccc4ccccc43)c3c2c1CC3 [3MC, 3-methylcholanthrene]	decreased	34.7	–	–
c1ccc2c(c1)cc1ccc3cccc4ccc2c1c34 [BaP, Benzo(a)pyrene]	–	–	eliminated or greatly reduced	little to no
c1ccc2c(c1)ccc1cc3c(ccc4ccccc43)cc12 [DBA, dibenz(a,h)anthracene]	no significant effect	7.33	–	–
Clc1ccc(-c2cc(Cl)c(Cl)c(Cl)c2)cc1Cl [PCB126, 3,3′4,4′5-pentachlorobiphenyl]	significantly reduced	74.1	–	–
Clc1cc2c(cc1Cl)Oc1cc(Cl)c(Cl)cc1O2 [TCDD, 2,3,7,8-tetrachlorodibenzo-p-dioxin]	–	–	eliminated or greatly reduced	less than 25%
Clc1cc2oc3cc(Cl)c(Cl)cc3c2cc1Cl [TCDF, 2,3,7,8-tetrachlorodibenzofuran]	–	–	eliminated or greatly reduced	little to no
